This note sets out measurements from ChEMBL document CHEMBL1144633, “Affinity-based ranking of ligands for DPP-4 from mixtures” (Bioorg Med Chem Lett, 2007).

For the assay, the target named is Dipeptidyl peptidase 4 (Homo sapiens, UniProt P27487). Put plainly: Inhibition of DPP4.
Sequence of Dipeptidyl peptidase 4 (P27487 whole entry): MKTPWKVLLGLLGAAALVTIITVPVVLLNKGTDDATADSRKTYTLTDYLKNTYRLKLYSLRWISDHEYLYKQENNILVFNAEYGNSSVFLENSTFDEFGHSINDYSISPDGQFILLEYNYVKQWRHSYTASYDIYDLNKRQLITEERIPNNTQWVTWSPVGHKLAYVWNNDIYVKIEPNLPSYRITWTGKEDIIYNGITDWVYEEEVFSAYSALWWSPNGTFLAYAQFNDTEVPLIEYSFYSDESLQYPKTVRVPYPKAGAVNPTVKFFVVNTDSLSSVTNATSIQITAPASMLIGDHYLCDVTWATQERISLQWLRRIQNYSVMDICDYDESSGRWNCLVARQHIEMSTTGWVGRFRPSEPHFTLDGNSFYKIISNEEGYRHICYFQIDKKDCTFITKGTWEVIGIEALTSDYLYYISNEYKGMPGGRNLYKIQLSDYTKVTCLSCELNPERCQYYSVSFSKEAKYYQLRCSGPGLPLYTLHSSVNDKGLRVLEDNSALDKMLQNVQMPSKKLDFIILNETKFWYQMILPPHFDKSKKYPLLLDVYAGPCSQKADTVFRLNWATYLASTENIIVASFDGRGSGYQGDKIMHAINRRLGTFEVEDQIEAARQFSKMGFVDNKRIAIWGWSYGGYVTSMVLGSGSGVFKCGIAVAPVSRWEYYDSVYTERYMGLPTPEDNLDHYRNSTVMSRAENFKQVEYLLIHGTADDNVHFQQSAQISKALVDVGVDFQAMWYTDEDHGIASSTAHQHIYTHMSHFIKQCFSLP
For the compound `N[C@@H](CC(=O)N1CCC[C@H]1C(=O)NCc1ccc(C(F)(F)F)cc1)Cc1ccccc1F`, the midpoint of inhibition, the IC50, lay at 731 nM.

Turning to `COc1cc(CNC(=O)[C@@H]2CCCN2C(=O)C[C@H](N)Cc2ccccc2F)ccc1O`, the IC50 amounted to 864 nM. In turn, `O=C([C@@H]1Cc2ccc(-c3cccc(-c4nnn[nH]4)c3)cc2CN1)N1CC[C@H](F)C1` yielded a half-inhibitory concentration (IC50) of 310 nM. The compound `N[C@@H](CC(=O)N1CCN(c2ccc(Cl)cc2)CC1)Cc1ccccc1F` had an IC50 of 1250 nM. On to `N[C@@H](CC(=O)N1CCn2nccc21)Cc1cc(F)ccc1F`, for which it took 1320 nM to reach half-maximal inhibition (IC50). The compound `CSc1cc(F)c(C[C@@H](N)CC(=O)N2CCn3c(nnc3C(F)(F)F)C2)cc1F` displayed a concentration for half-maximal inhibition (IC50) of 780 nM. Take `N[C@H](C(=O)N1CCC(F)(F)C1)[C@@H]1CCN(S(=O)(=O)c2ccc(OC(F)(F)F)cc2)C1`: the half-maximal inhibitory concentration (IC50) worked out at 995 nM.

`C=COCC(=O)N1CCN(C(=O)C[C@H](N)Cc2ccccc2F)CC1` displayed an IC50 of 2210 nM. To `C=CCC(C(=O)N1CCn2c(nnc2C(F)(F)F)C1)[C@H](N)Cc1cc(F)c(F)cc1F` (stereo partly specified) belongs 2000 nM; to `N[C@@H](CC(=O)N1CCn2cc(C(F)(F)F)nc2C1c1ccc(F)cc1)Cc1ccc(F)c(F)c1` (stereo partly specified), 1400 nM. Compound `CC(C)[C@H](Oc1ccc(CNC(=O)[C@@H]2CCCN2C(=O)C[C@H](N)Cc2cc(F)c(F)c(F)c2F)cc1)C(=O)O` returned a concentration for half-maximal inhibition (IC50) of 8 nM.

Usually IC50 stands for the midpoint of a concentration-inhibition curve. A low value points to greater potency.
